Measured values taken from patent US20110319397A1 (priority 2009, published 2011).

Target: α7-subtype of nicotinic receptors (Mus musculus, UniProt P49582)
Assay type: in vivo, mice
Conditions: ex vivo, mouse hippocampal membranes; dose inhibiting specific binding of 3H-α-bungarotoxin (1 nM) by 50%

Sequence of α7-subtype of nicotinic receptors (P49582 23-502): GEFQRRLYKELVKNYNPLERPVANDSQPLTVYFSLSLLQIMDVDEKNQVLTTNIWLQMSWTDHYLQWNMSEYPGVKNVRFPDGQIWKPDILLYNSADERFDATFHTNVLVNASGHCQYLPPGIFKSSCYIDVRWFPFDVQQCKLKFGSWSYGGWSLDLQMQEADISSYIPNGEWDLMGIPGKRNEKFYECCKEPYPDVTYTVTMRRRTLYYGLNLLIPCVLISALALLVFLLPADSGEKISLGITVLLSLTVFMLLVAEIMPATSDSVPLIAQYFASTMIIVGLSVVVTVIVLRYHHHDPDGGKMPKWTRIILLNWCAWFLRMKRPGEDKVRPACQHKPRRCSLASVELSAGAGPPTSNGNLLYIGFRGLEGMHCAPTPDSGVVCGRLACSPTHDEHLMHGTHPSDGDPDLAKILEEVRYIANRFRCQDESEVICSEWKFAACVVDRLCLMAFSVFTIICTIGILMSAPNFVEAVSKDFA

SMILES: [O-][N+]12CCC(CC1)N(c1nnc(-c3ccoc3)o1)CC2 [Compound 1, 4-(5-Furan-3-yl-[1,3,4]oxadiazol-2-yl)-1,4-diaza-bicyclo[3.2.2]nonane 1-oxide]
- EC50 (mg/kg), Inhibition of 3H-α-Bungarotoxine Binding: 40 mg/kg
